In brackets after ≈: the same amount, converted by molar mass.
Assays:
Streptococcus pneumoniae [1] = assay: Antibacterial activity against Streptococcus pneumoniae 3009 by macrodilution method; assay type: functional
Streptococcus pneumoniae [2] = assay: Antibacterial activity against Streptococcus pneumoniae 1076 by macrodilution method; assay type: functional
Streptococcus pneumoniae [3] = assay: Antibacterial activity against Streptococcus pneumoniae 37 by macrodilution method; assay type: functional
Streptococcus pneumoniae [4] = assay: Antibacterial activity against gatifloxacin resistance selected Streptococcus pneumoniae 3009 after 14 passages by macrodilution method; assay type: functional
Streptococcus pneumoniae [5] = assay: Antibacterial activity against gatifloxacin resistance selected Streptococcus pneumoniae 1076 with ParC S79Y mutation after 20 passages by macrodilution method; assay type: functional
Streptococcus pneumoniae [6] = assay: Antibacterial activity against moxifloxacin resistance selected Streptococcus pneumoniae 24 with GyrA S81Y, GyrB P413S and ParC S79F mutation after 10 antibiotic-free subcultures by macrodilution method; assay type: functional
Streptococcus pneumoniae [7] = assay: Antibacterial activity against azithromycin resistance selected Streptococcus pneumoniae 2527 after 10 antibiotic-free subcultures by macrodilution method; assay type: functional
Streptococcus pneumoniae [8] = assay: Antibacterial activity against gatifloxacin resistance selected Streptococcus pneumoniae 37 with GyrA S81Y, GyrB E474K and ParC S79Y mutation after 10 antibiotic-free subcultures by macrodilution method; assay type: functional
Streptococcus pneumoniae [9] = assay: Antibacterial activity against Streptococcus pneumoniae assessed as period of suppression of bacterial growth; assay type: functional
Streptococcus pneumoniae [10] = assay: Antibacterial activity against gatifloxacin resistance selected Streptococcus pneumoniae 37 with GyrA S81Y, GyrB E474K and ParC S79Y mutation after 14 passages by macrodilution method; assay type: functional
Streptococcus pneumoniae [11] = assay: Antibacterial activity against levofloxacin resistance selected Streptococcus pneumoniae 3009 with GyrA S81Y and ParC S79Y mutation after 10 antibiotic-free subcultures by macrodilution method; assay type: functional
Streptococcus pneumoniae [12] = assay: Antibacterial activity against gatifloxacin resistance selected Streptococcus pneumoniae 3009 after 10 antibiotic-free subcultures by macrodilution method; assay type: functional
Streptococcus pneumoniae [13] = assay: Antibacterial activity against moxifloxacin resistance selected Streptococcus pneumoniae 3009 with GyrA S81F and ParC D83N mutation after 10 antibiotic-free subcultures by macrodilution method; assay type: functional
Streptococcus pneumoniae [14] = assay: Antibacterial activity against clarithromycin resistance selected Streptococcus pneumoniae 3009 after 10 antibiotic-free subcultures by macrodilution method; assay type: functional
Streptococcus pneumoniae [15] = assay: Antibacterial activity against moxifloxacin resistance selected Streptococcus pneumoniae 1076 with ParC S79Y mutation after 10 antibiotic-free subcultures by macrodilution method; assay type: functional
Streptococcus pneumoniae [16] = assay: Antibacterial activity against gatifloxacin resistance selected Streptococcus pneumoniae 1076 with ParC S79Y mutation after 10 antibiotic-free subcultures by macrodilution method; assay type: functional
Streptococcus pneumoniae [17] = assay: Antibacterial activity against azithromycin resistance selected Streptococcus pneumoniae 1077 with 23S rRNA A2058G mutation after 10 antibiotic-free subcultures by macrodilution method; assay type: functional
Streptococcus pneumoniae [18] = assay: Antibacterial activity against moxifloxacin resistance selected Streptococcus pneumoniae 3665 with GyrA S81Y mutation after 10 antibiotic-free subcultures by macrodilution method; assay type: functional
Streptococcus pneumoniae [19] = assay: Antibacterial activity against clarithromycin resistance selected Streptococcus pneumoniae 3665 after 10 antibiotic-free subcultures by macrodilution method; assay type: functional
Streptococcus pneumoniae [20] = assay: Antibacterial activity against moxifloxacin resistance selected Streptococcus pneumoniae 3676 with GyrA E85G, GyrB S478I and ParC S79Y mutation after 10 antibiotic-free subcultures by macrodilution method; assay type: functional
Streptococcus pneumoniae [21] = assay: Antibacterial activity against clarithromycin resistance selected Streptococcus pneumoniae 3676 after 10 antibiotic-free subcultures by macrodilution method; assay type: functional
Streptococcus pneumoniae [22] = assay: Antibacterial activity against moxifloxacin resistance selected Streptococcus pneumoniae 3243 after 10 antibiotic-free subcultures by macrodilution method; assay type: functional
Streptococcus pneumoniae [23] = assay: Antibacterial activity against azithromycin resistance selected Streptococcus pneumoniae 3243 with L22 insertion 93SFRPRA94 mutation after 10 antibiotic-free subcultures by macrodilution method; assay type: functional
Streptococcus pneumoniae [24] = assay: Antibacterial activity against clarithromycin resistance selected Streptococcus pneumoniae 3243 with 23S rRNA A2059T mutation after 10 antibiotic-free subcultures by macrodilution method; assay type: functional
Streptococcus pneumoniae [25] = assay: Antibacterial activity against moxifloxacin resistance selected Streptococcus pneumoniae 19 with GyrA S81F mutation after 10 antibiotic-free subcultures by macrodilution method; assay type: functional
Streptococcus pneumoniae [26] = assay: Antibacterial activity against levofloxacin resistance selected Streptococcus pneumoniae 19 with GyrA S81Y and ParC D83Y mutation after 10 antibiotic-free subcultures by macrodilution method; assay type: functional
Streptococcus pneumoniae [27] = assay: Antibacterial activity against Streptococcus pneumoniae 1077 by macrodilution method; assay type: functional
Streptococcus pneumoniae [28] = assay: Antibacterial activity against Streptococcus pneumoniae 3243 by macrodilution method; assay type: functional
Streptococcus pneumoniae [29] = assay: Antibacterial activity against Streptococcus pneumoniae 2527 by macrodilution method; assay type: functional
Streptococcus pneumoniae [30] = assay: Antibacterial activity against azithromycin resistance selected Streptococcus pneumoniae 1077 with 23S rRNA A2058G mutation after 29 passages by macrodilution method; assay type: functional
Streptococcus pneumoniae [31] = assay: Antibacterial activity against azithromycin resistance selected Streptococcus pneumoniae 3243 with L22 insertion 93SFRPRA94 mutation after 33 passages by macrodilution method; assay type: functional
Streptococcus pneumoniae [32] = assay: Antibacterial activity against azithromycin resistance selected Streptococcus pneumoniae 2527 after 20 passages by macrodilution method; assay type: functional
Streptococcus pneumoniae [33] = assay: Antibacterial activity against moxifloxacin resistance selected Streptococcus pneumoniae 3009 with GyrA S81F and ParC D83N mutation after 19 passages by macrodilution method; assay type: functional
Streptococcus pneumoniae [34] = assay: Antibacterial activity against moxifloxacin resistance selected Streptococcus pneumoniae 1076 with ParC S79Y mutation after 35 passages by macrodilution method; assay type: functional
Streptococcus pneumoniae [35] = assay: Antibacterial activity against moxifloxacin resistance selected Streptococcus pneumoniae 3665 with GyrA S81Y mutation after 38 passages by macrodilution method; assay type: functional
Streptococcus pneumoniae [36] = assay: Antibacterial activity against moxifloxacin resistance selected Streptococcus pneumoniae 3676 with GyrA E85G, GyrB S478I and ParC S79Y mutation after 50 passages by macrodilution method; assay type: functional
Streptococcus pneumoniae [37] = assay: Antibacterial activity against moxifloxacin resistance selected Streptococcus pneumoniae 3243 after 20 passages by macrodilution method; assay type: functional
Streptococcus pneumoniae [38] = assay: Antibacterial activity against moxifloxacin resistance selected Streptococcus pneumoniae 19 with GyrA S81F mutation after 32 passages by macrodilution method; assay type: functional
Streptococcus pneumoniae [39] = assay: microbe, parasite or virus in culture

SMILES	MIC (Streptococcus pneumoniae [2])	MIC (Streptococcus pneumoniae [6])	MIC (Streptococcus pneumoniae [7])	MIC (Streptococcus pneumoniae [8])	Post Antibiotic Effe (Streptococcus pneumoniae [9])	MIC (Streptococcus pneumoniae [11])	MIC (Streptococcus pneumoniae [12])	MIC (Streptococcus pneumoniae [13])	MIC (Streptococcus pneumoniae [14])	MIC (Streptococcus pneumoniae [15])	MIC (Streptococcus pneumoniae [16])	MIC (Streptococcus pneumoniae [17])	MIC (Streptococcus pneumoniae [18])	MIC (Streptococcus pneumoniae [19])	MIC (Streptococcus pneumoniae [20])	MIC (Streptococcus pneumoniae [21])	MIC (Streptococcus pneumoniae [22])	MIC (Streptococcus pneumoniae [23])	MIC (Streptococcus pneumoniae [24])	MIC (Streptococcus pneumoniae [25])	also measured
COc1c(N2CCNC(C)C2)c(F)cc2c(=O)c(C(=O)O)cn(C3CC3)c12 (stereo not given) [GATIFLOXACIN]	2 µg/mL (≈ 5.33 µM)	4 µg/mL (≈ 10.7 µM)	8 µg/mL (≈ 21.3 µM)	16 µg/mL (≈ 42.6 µM)	1.7 h	8 µg/mL (≈ 21.3 µM)	8 µg/mL (≈ 21.3 µM)	2 µg/mL (≈ 5.33 µM)	0.25 µg/mL (≈ 0.666 µM)	8 µg/mL (≈ 21.3 µM)	8 µg/mL (≈ 21.3 µM)	8 µg/mL (≈ 21.3 µM)	0.5 µg/mL (≈ 1.33 µM)	0.25 µg/mL (≈ 0.666 µM)	2 µg/mL (≈ 5.33 µM)	0.5 µg/mL (≈ 1.33 µM)	1 µg/mL (≈ 2.66 µM)	0.25 µg/mL (≈ 0.666 µM)	0.25 µg/mL (≈ 0.666 µM)	0.5 µg/mL (≈ 1.33 µM)	MIC (Streptococcus pneumoniae [1]): 1 µg/mL (≈ 2.66 µM); MIC (Streptococcus pneumoniae [3]): 1 µg/mL (≈ 2.66 µM); MIC (Streptococcus pneumoniae [4]): 16 µg/mL (≈ 42.6 µM); MIC (Streptococcus pneumoniae [5]): 16 µg/mL (≈ 42.6 µM); MIC (Streptococcus pneumoniae [10]): 16 µg/mL (≈ 42.6 µM); MIC (Streptococcus pneumoniae [26]): 4 µg/mL (≈ 10.7 µM)
CC[C@H]1OC(=O)[C@H](C)[C@@H](O[C@H]2C[C@@](C)(OC)[C@@H](O)[C@H](C)O2)[C@H](C)[C@@H](O[C@@H]2O[C@H](C)C[C@H](N(C)C)[C@H]2O)[C@](C)(O)C[C@@H](C)CN(C)[C@H](C)[C@@H](O)[C@]1(C)O [AZITHROMYCIN]		> 128 µg/mL	4 µg/mL (≈ 5.34 µM)	> 128 µg/mL	3.1 h	128 µg/mL (≈ 171 µM)	> 128 µg/mL	> 128 µg/mL	128 µg/mL (≈ 171 µM)	> 128 µg/mL	> 128 µg/mL	> 64 µg/mL	8 µg/mL (≈ 10.7 µM)	8 µg/mL (≈ 10.7 µM)	4 µg/mL (≈ 5.34 µM)	16 µg/mL (≈ 21.4 µM)	0.016 µg/mL (≈ 0.0214 µM)	0.5 µg/mL (≈ 0.668 µM)	1 µg/mL (≈ 1.34 µM)	> 128 µg/mL	MIC (Streptococcus pneumoniae [27]): 0.03 µg/mL (≈ 0.0401 µM); MIC (Streptococcus pneumoniae [28]): 0.03 µg/mL (≈ 0.0401 µM); MIC (Streptococcus pneumoniae [29]): 0.016 µg/mL (≈ 0.0214 µM); MIC (Streptococcus pneumoniae [30]): > 64 µg/mL; MIC (Streptococcus pneumoniae [31]): 0.25 µg/mL (≈ 0.334 µM); MIC (Streptococcus pneumoniae [32]): 4 µg/mL (≈ 5.34 µM); MIC (Streptococcus pneumoniae [26]): > 128 µg/mL
COc1c(N2C[C@@H]3CCCN[C@@H]3C2)c(F)cc2c(=O)c(C(=O)O)cn(C3CC3)c12 [MOXIFLOXACIN]	1 µg/mL (≈ 2.49 µM)			16 µg/mL (≈ 39.9 µM)	1.5 h	4 µg/mL (≈ 9.96 µM)									8 µg/mL (≈ 19.9 µM)					2 µg/mL (≈ 4.98 µM)	MIC (Streptococcus pneumoniae [33]): 2 µg/mL (≈ 4.98 µM); MIC (Streptococcus pneumoniae [34]): 8 µg/mL (≈ 19.9 µM); MIC (Streptococcus pneumoniae [35]): 1 µg/mL (≈ 2.49 µM); MIC (Streptococcus pneumoniae [36]): 8 µg/mL (≈ 19.9 µM); MIC (Streptococcus pneumoniae [37]): 1 µg/mL (≈ 2.49 µM); MIC (Streptococcus pneumoniae [38]): 1 µg/mL (≈ 2.49 µM); MIC (Streptococcus pneumoniae [39]): 4 µg/mL (≈ 9.96 µM)
